Laboratory results taken from patent US6465526B1, “Natural mixture composed of higher primary aliphatic alcohols obtained from bee wax for the treatment of gastric and duodenal ulcers that also present antiinflamatory activity” (Laboratories Dalmer SA, priority 1994, dated 2002).
Marks after values point to notes of the source that are not given here.

Key:
Format in all cases: in vivo, Sprague Dawley rats
[1] = system: gastric ulcer induced by alcohol (60%) and indometacine (10 mg/kg); test: gastric ulcer induced by alcohol (60%) and indometacine (10 mg/kg)
Procedure: The objective of the present work is to determine if the protective effect of […]. against ulcer is dependent of prostaglandins or not. Male Sprague Dawley rats, weighting 150 to 200 g, were adapted to laboratory conditions for 7 days with water and food ad libitum, up to 48 h previous to the experiment, where food is suppressed. The animals were randomly distributed in 4 experimental groups. […]. was administered intraperitoneally in a 2% Tween 20/water suspension, cimetidine was dissolved in hot water and indomethacine in 5% sodium bicarbonate. […] […] after the animals were injected by i.p. route indomethacine was administered at 10 mg/kg by subcutaneous route. Half an hour later, was administered 60% alcohol and, an hour later, the animals were sacrificed. The stomachs were extracted, opened by the bigger curvature and measured the size of the ulcer using a 3× enlargement. Results were expressed in […]. In all cases, the comparison between the treated groups and the control one was realized using the non parametric U de Mann Whitney test.

acid gastric secretion = test: gastric acidity in the model of pilorous ligatured; conditions: 4 h after pilorous ligature
Procedure: The results obtained in last examples sugest an action over ulcer induced by acid compounds dependent or independent. With the objective of discard the inhibitory effect over the inhibition of the acid gastric secretion was determined the action of […]. over this acid gastric secretion in the pilorous ligature model. Female Sprague Dawley rats, weighing 150 to 200 g were adapted to laboratory conditions for 15 days with water and food ad libitum. The animals were randomly distributed in different experimental groups and food was deprived 48 h previous to the ligature. […]. was administered intraperitoneally in a 2% Tween 20/water suspension. Cimetidine was dissolved in hot water and administered by the same route as […]. […] Rats were anaesthetized with ether and an incision, in the abdominal region was done, stomachs were extracted and pilorous were ligatured with thread. […], after that, the compound was administered by i.p. route and 3 mL of saline solution were injected by subcutaneous route. Four h later, the animals were sacrificed, intact stomachs were extracted, tweezed by the esophagus. The gastric content was centrifuged at 3000 min^-1 for 10 min and, later on, the volume was measured. The acidity of the gastric juice was measured using 0.1 mol/L NaOH and phenolphtalein as indicator. The comparison between the treated groups and the control one was realized using the non parametric U de Mann Whitney test.

cotton granule = test: model of cotton granule; conditions: 3 mg/kg orally, 6 days
Procedure: In order to corroborate the antiinflamatory effect of the […]. are used the pleuresy induced by carragenine and the granule by cotton models, those ones that constitute established models for the evaluation of antiinflamatory drugs. Granule by cotton: Male Sprague Dawley rats, weighing 200 to 250 g, were adapted to laboratory conditions in the same way as the last experiment. […]. was administered orally in a 2% Tween 20/water suspension, while administered orally in a 5% sodium bicarbonate. […] Rats were randomly distributed in 5 experimental groups: 1) control (vehicle); 2, 3, and 4) […]. at 25, 50 and 100 mg/kg respectively and 5) indomethacine at 3 mg/kg. Rats were, previously, anaesthetized with ether, doing an incision in the dorsal region. The […] cotton pellet of 50 mg was sub-cutaneously and applied with a local […] finally the injured is closed. […] The percent of inhibition was […] taking as reference the weight of the granule formed in the control group.

[2] = system: pleuresy induced by carragenine; test: pleuresy induced by carragenine; conditions: for Exudate volume: 1 h before carragenine, 5 h
Procedure: Pleuresy by carragenine: Male Sprague Dawley rats were used (200-250 g) and adapted to laboratory conditions for 15 days with water and food ad libitum and were deprived of food 12 h previous to the experiment. M.H.A.A.B.W. was administered in a 10 mg/mL acacia gum/water suspension, as well as triacontanol, while indomethacine was dissolved in 5% sodium bicarbonate.
All the treatments were administered using gastric gavage one hour previous to the injection of carragenine. Rats were randomly distributed in the following experimental groups: 1) control (vehicle); 2, 3 and 4) M.H.A.A.B.W. at 25, 50 and 100 mg/kg respectively; 5) triacontanol at 50 mg/kg and 6) indomethacine at 10 mg/kg.
For the induction of the edema, rats were anesthesized with ether and 0.3 mL of carragenine in 1% of saline solution were injected in the pleural cavity. Five hours later, the animals were sacrificed and the exudate were colected, determining its volume. The percent of inhibition of the edema is calculated using the following formula:
Inhibition (%)=1−(VT)/(VC)×100
VT=volume of the edema of treated animals
VC=volume of the edema of control animals

[3] = 25 mg/kg i.p., indomethacine 10 mg/kg s.c. + 60% alcohol

## CN/C(=N/CCSCc1nc[nH]c1C)NC#N [Cimetidine, cimetidine]
[1]; [3]
  Inhibition: 71.2%
  Ulcer: 14.6 +/− 5.64* mm
Acid gastric secretion; 25 mg/kg i.p.
  Acidity: 0,080 +/− 0,009* meq H^+/mL
  Gastric juice volume: 5,87 +/− 0,63* mL
Acid gastric secretion; 50 mg/kg i.p.
  Acidity: 0,083 +/− 0,006** meq H^+/mL
  Gastric juice volume: 5,83 +/− 0,38** mL

## COc1ccc2c(c1)c(CC(=O)O)c(C)n2C(=O)c1ccc(Cl)cc1 [Indometacine, indomethacine]
[1]; indometacine alone (10 mg/kg s.c.), no alcohol
  Ulcer: 0 mm
Cotton granule
  Inhibition: 69.3%
  Weight of granule: 79 + 0.02 ** mg.
[2]; 10 mg/kg oral
  Inhibition: 59.6%
  Exudate volume: 0.50 ± 0.15 mL

## CCCCCCCCCCCCCCCCCCCCCCCCCCCCCCO [Triacontanol, 1-triacontanol]
[2]; 100 mg/kg oral (maximum dose assayed)
  Inhibition: 27.4%
[2]; 100 mg/kg oral
  Exudate volume: 0.96 ± 0.30 mL
